These results are taken from patent publication US7087620B2, “Liquid pharmaceutical formulations containing 3,7-diazabicyclo[3,3,1]nonane compounds and methods of treatment relating to anti-arrhythmic events” (Solvay Pharmaceuticals GmbH, priority 2002, dated 2006).

A short description of series [1]: Two step infusion study in healthy male subjects: pharmacokinetics (Tedisamil plasma concentration). It is filed as in vivo. Particulars: human; for Tmax: male, iv, 0.4 mg/kg, after start of infusion, 0.4 mg/kg iv two step infusion. Here is the method:
A double-blind, placebo-controlled, randomized, single iv dose, two periods cross-over study to assess the safety, tolerability, pharmacodynamics and pharmacokinetics during and following a two step infusion of Tedisamil in healthy male subjects was performed with the following drug and dosages: Tedisamil dihydrochloride/0.4 mg/kg body weight infused over 30 minutes.
Subjects were included in the study only if they were healthy males, their age was in the range of 18-40 years (both inclusive), their body mass index (BMI) was between 18 kg/m^2 and 28 kg/m^2. Test product, dose and mode of administration: Tedisamil dihydrochloride; Strength: 2 mg/ml; Dose: 0.4 mg/kg body weight infused over 30 minutes, with half of the dose infused over 10 minutes and half of the dose infused over the remaining 20 minutes. Route: intravenous.
Blood samples for determination of Tedisamil plasma concentration were taken at several time points during and following intravenous drug administration in both study periods. The following pharmacokinetic parameters were determined: AUC(0-inf), AUC(0-t), Cmax, Tmax, t1/2, λz, Vss, CL, MRT and the number of data points considered for the determination of terminal half life.
Geometric means and corresponding 90% confidence intervals were calculated for the plasma concentration of tedisamil at each time-point, for AUC, AUC(0-t), CL, and Cmax.
Arithmetic means and corresponding 90% confidence intervals were calculated for the other variables (Vss, λz, t1/2, MRT). Tmax was described using minimum, median, maximum, and frequency counts. Individual and mean plasma-concentration versus time curves were plotted using both linear and semi-logarithmic scale.

In series [2] the test system is patients with atrial fibrillation or flutter. The series can be described thus: Placebo-controlled ascending dose study of intravenous tedisamil: conversion to normal sinus rhythm, overall (atrial fibrillation or flutter). The note with it: for Conversion to NSR at any time within 2.5 hrs after start of infusion (%) / Conversion to NSR at any time within 2.5 hrs after start of infusion (converted/total): Overall, ITT patient sample, patients with DC cardioversion excluded. It is filed as in vivo, human. On the procedure: A Multi-Center, Double-Blind, Randomized, Placebo-Controlled, Sequential Ascending Dose Groups Study to evaluate the Efficacy and Safety of Intravenous Tedisamil in the Rapid Conversion to Normal Sinus Rhythm in Patients with Atrial Fibrillation or Flutter was performed.
• Tedisamil (0.4 mg/kg body weight) • Tedisamil (0.6 mg/kg body weight) • Placebo • Dosages were given as a 30 minute intravenous infusion regimen. 1. Study Design
This multicenter trial was a double-blind, randomized, placebo-controlled, ascending dose groups study comparing the efficacy and safety of intravenous tedisamil treatment versus placebo in symptomatic patients with atrial fibrillation or flutter (>3 hours and <48 hours). The primary efficacy endpoint of this study was the termination of atrial fibrillation or flutter (for at least 60 seconds) within 2.5 hours after start of the infusion.
Following screening and baseline assessments, eligible patients were randomized to tedisamil or placebo with a sequential dose escalation approach. In the first stage, patients received 0.4 mg tedisamil/kg body weight or placebo over a 30 minutes infusion period, with half the dose infused during the first 10 minutes and half the dose infused over the remaining 20 minutes. After interim safety evaluation, in the second stage, patients received 0.6 mg tedisamil/kg body weight or placebo, with the same infusion regimen.
Patients were discharged from the telemetry unit 24 hours post infusion and safety follow up was to be obtained after 28 days. Blinded reviews of 12-lead ECGs (including 60 seconds rhythm strip) and 24 hour Holters to adjudicate the clinical endpoint (conversion to normal sinus rhythm) were performed centrally according to standard guidelines.
Tedisamil dihydrochloride, 0.4 mg/kg body weight, 0.6.mg/kg body weight was administered intravenously. The total infusion time was 30 minutes, with half the dose infused within 10 minutes, and half the dose infused within the remaining 20 minutes.
The percentage of patients converted to normal sinus rhythm (for at least 60 seconds) at any time within 2.5 hours after the initiation of the infusion of study drug.
(§1) The intent-to-treat patient sample was analyzed for efficacy. All tests were two-sided and a p-value <0.05 was considered significant. Differences in percentages of conversion were compared among the treatment groups using the Pearson chi-square statistic. Safety analysis was conducted on the safety patient sample. Numbers and percentages of patients with adverse events were calculated for each treatment group, using MedDRA preferred terms and body systems. Descriptive statistics were summarized by treatment group for changes from baseline in QT, heart rate and blood pressure.
This first clinical study was a Multi-Center, Double-Blind, Randomized, Placebo-Controlled, Sequential Ascending Dose Groups Study to evaluate the Efficacy and Safety of Intravenous Tedisamil in the Rapid Conversion to Normal Sinus Rhythm in Patients with Atrial Fibrillation or Flutter. The active ingredient used was tedisamil dihydrochloride. The study was designed as a phase II study and executed in 35 to 40 centers in 3 to 4 countries. Study duration: Screening: up to 48 hours; treatment (in-patient): single 30-minute infusion; safety follow up: 24 hours (in-patient) with continuous telemetry and 28 day safety follow up.
The following methodology was applied: A multi-center, double-blind, randomized, placebo-controlled, sequential ascending dose groups study to evaluate the efficacy and safety of intravenous tedisamil versus placebo. The study drug was infused over 30 minutes, receiving half the dose within 10 minutes and half the dose within the remaining 20 minutes. The first patient group received 0.4 mg/kg bodyweight (bw), infused as 0.2 mg/kg bw within 10 minutes, continued with 0.2 mg/kg bw infused within 20 minutes. […]

Series [3] has the same test system. Kind of series: Safety and tolerability of intravenous tedisamil in patients with atrial fibrillation or flutter. Format: in vivo, human. On the procedure:
The safety objective was: To determine the safety and tolerability of tedisamil versus placebo.
Safety was monitored regarding: Physical examination, ECG, 24-hour Holter monitoring, vital signs, laboratory evaluations and adverse events.
as §1
Physical examination, ECG, 24-hour Holter monitoring, vital signs, laboratory evaluations and adverse events.

The mark [4] stands for this setting: two-step infusion regimen, 0.4 and 0.6 mg/kg.

Molecules are shown by their SMILES. Where two headings read alike, the source gives them in different places.

The term AUC(0-inf) denotes the area under the concentration-time curve extrapolated to infinity. For orientation: AUC(0-t) means the area under the concentration-time curve up to a stated or last time point. Broadly, the Cmax is the peak of the concentration-time curve. Regarding `C1CCC2(C1)C1CN(CC3CC3)CC2CN(CC2CC2)C1` [Tedisamil, N,N′-dicyclopropylmethyl-9,9-tetramethylene-3,7-diazabicyclo[3,3,1]nonane], the area under the curve AUC(0-inf) in series [1] (0.4 mg/kg tedisamil dihydrochloride iv, two step infusion over 30 minutes, read-out: AUC(0-inf), Geom. Mean) was 1720 ng·h/mL. Besides, the AUC(0-t) in series [1] (0.4 mg/kg tedisamil dihydrochloride iv, two step infusion over 30 minutes, read-out: AUC(0-t), Geom. Mean) worked out at 1670 ng·h/mL. In addition, the clearance in series [1] (0.4 mg/kg tedisamil dihydrochloride iv, two step infusion over 30 minutes, read-out: CL, Geom. Mean) stood at 315 mL/min. Further, the maximum concentration (Cmax) in series [1] (0.4 mg/kg tedisamil dihydrochloride iv, two step infusion over 30 minutes, read-out: Cmax, Geom. Mean) came out at 905 ng/mL. In series [1] (0.4 mg/kg tedisamil dihydrochloride iv, two step infusion over 30 minutes, read-out: t½, Arithmetic mean (converted)), the half-life was 330 min. The Tmax in series [1] (read-out: Time of peak plasma concentration (Tmax), median (converted)) was 12.5 min; in series [1] (read-out: Time of peak plasma concentration (Tmax), range), 5 to 75 min. Besides, the “Conversion to NSR at any time within 2.5 hrs after start of infusion (%)” value in series [2] (Female, 0.4 mg/kg) is reported as 31.6%; in series [2] (Female, 0.6 mg/kg), 36.4%; in series [2] (Male, 0.4 mg/kg) it was 45.2%; in series [2] (Male, 0.6 mg/kg) it was 61.3%. For the same compound, the “Conversion to NSR at any time within 2.5 hrs after start of infusion (converted/total)” value in series [2] (Female, 0.4 mg/kg) is reported as 6/19; in series [2] (Female, 0.6 mg/kg), 8/22; in series [2] (Male, 0.4 mg/kg), 19/42; in series [2] (Male, 0.6 mg/kg), 19/31. Also, in series [2] (first study (Phase II), tedisamil dihydrochloride), the “Gender difference in conversion rate” value is reported as “male patients show a higher conversion rate compared to women”. In series [2] (in vivo), the “Conversion rates on extension of infusion beyond the times indicated” value is reported as “did not produce higher conversion rates”. For the same compound, the “Average time to cardioversion after the start of tedisamil administration” value in series [2] (patients with atrial fibrillation or flutter of up to 48 hours duration, iv two-step infusion) came to 35 min. The “Conversion of atrial fibrillation and flutter to NSR (in words)” value in series [2] (two-step infusion regimen) is “effective in conversion of atrial fibrillation and flutter to NSR”. For the same compound, the “TdP (Torsade de Point)” value in series [3] (30 min regimen, by gender) is “Almost all observed TdP (Torsade de Point) in 30 min regimen were in female patients”. In series [3] (first study (Phase II)), the “Gender difference in safety issues” value is recorded as “male patients show less safety issues than female patients”. For the same compound, the “DC cardioversion required for treatment of VTs” value in series [3] (setting [4]) was “no patient required DC cardioversion for treatment of VTs”. Moreover, the “Sustained polymorphic VT” value in series [3] (setting [4]) was “no sustained polymorphic VT were observed”. The Tolerability in patients entry in series [3] (setting [4]) was “well tolerated”.
